Test results taken from patent publication US12234211B2, “Cycloolefin substituted heteroaromatic compounds and their use” (HUTCHISON MEDIPHARMA LIMITED, priority 2017, dated 2025).
Converted amounts (≈) assume the structure as drawn. Read-outs that look alike come from different tables or passages of the source.

Tests used:
[1] = Determination of solubility in sodium phosphate buffers; assay type: physicochemical; settings: for solubility at 1 h: aqueous buffer, thermodynamic from solid
Method: • Sample standard solution: About 3-5 mg test compound was accurately weighed and added into a 5 mL sample tube, 5 mL DMSO was added. Shaking and sonicating for 1 hour. • pH 2.1 sample solution: About 1 mg test compound was accurately weighed and added into a 1 mL sample tube, 1 mL pH 2.1 sodium phosphate buffer was added. Shaking. Adding test compound to the solution, if the solution is visually clear, till there is obvious insoluble in the solution. Sonicating for 1 hour. • pH 7.4 sample solution: About 1 mg test compound was accurately weighed and added into a 1 mL sample tube, 1 mL pH 7.4 sodium phosphate buffer was added. Shaking. Adding test compound to the solution, if the solution is visually clear, till there is obvious insoluble in the solution. Sonicating for 1 hour. 2. Determination • 1 mL sample standard solution was accurately pipetted into a HPLC tube. The peak area was determined by HPLC. • 0.5 mL pH 2.1 sample solution was filtered by syringe filter and was accurately pipetted into a HPLC tube, and 0.5 mL pH 2.1 sodium phosphate buffer was accurately added. Shaking. The peak area was determined by HPLC. • 0.5 mL pH 7.4 sample solution was filtered by syringe filter and was accurately pipetted into a HPLC tube, and 0.5 mL pH 7.4 sodium phosphate buffer was accurately added. Shaking. The peak area was determined by HPLC. • HPLC condition: • Instrument: Agilent 1200 • Column: Agilent SB-C18 5 u 4.6*150 mm • Mobile phase: • Phase A: Water (containing 0.1% formic acid) • Phase B: MeOH (containing 0.1% formic acid)

[2] = target: T1, IDH2-R140Q (Homo sapiens, UniProt P48735, R140Q); assay: Fluorescent determination of IDH2-R140Q cell activity (2-HG in U87MGR140Q cells); assay type: cell-based; settings: 72 hours incubation, read-out: IC50 (2-HG inhibition)
T1 construct: expressed in transfected cells
T1 sequence (P48735 40-452 R140Q): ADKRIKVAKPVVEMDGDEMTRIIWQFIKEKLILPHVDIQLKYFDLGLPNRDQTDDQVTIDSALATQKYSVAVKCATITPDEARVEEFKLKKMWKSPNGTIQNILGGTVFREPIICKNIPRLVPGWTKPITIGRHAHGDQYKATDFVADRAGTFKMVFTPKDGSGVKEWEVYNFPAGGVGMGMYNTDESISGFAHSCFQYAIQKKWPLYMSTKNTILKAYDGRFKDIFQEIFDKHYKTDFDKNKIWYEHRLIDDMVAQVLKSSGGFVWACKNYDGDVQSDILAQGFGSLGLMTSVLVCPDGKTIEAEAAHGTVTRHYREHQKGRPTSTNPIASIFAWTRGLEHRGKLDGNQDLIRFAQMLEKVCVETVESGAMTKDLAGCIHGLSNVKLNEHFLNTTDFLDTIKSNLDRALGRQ

[3] = target: T2, IDH1-R132H (Homo sapiens, UniProt O75874, R132H); assay: Fluorescent determination of IDH1-R132H cell activity (2-HG in U87MGR132H cells); assay type: cell-based; settings: 2-HG inhibition in U87MGR132H cells transfected with IDH1-R132H mutant plasmid
T2 construct: expressed in transfected cells; host or cells: U87MG cells (U87MGR132H)

[4] = Metabolic stability test in liver microsomes (rat); assay type: in vitro ADME; settings: percentage of remaining compound after incubation for 30 minutes vs 0 minute; 1 μM compound; 0.5 mg/mL liver microsomes; 37° C.
Method: (§1) Male CD1 mouse liver microsomes was supplied by Research Institute for Liver Diseases (Shanghai) Co., Ltd. Male SD rat liver microsomes was supplied by BioreclamationIVT in US.
(§2) Phenacetin, glucose-6-phosphate (G-6-P), glucose-6-phosphate dehydrogenase (G-6-PD), and nicotinamide adenine dinucleotide phosphate (NADP) were supplied by Sigma-Aldrich (Missouri, USA).
(§3) 10 mM stock solution of test compound: Certain amount of test compound was weighed and dissolved in certain volume of dimethylsulfoxide (DMSO) to get the stock solution of test compound at 10 mM.
(§4) Reaction termination solution: Certain amount of phenacetin as internal standard was weighed and dissolved in acetonitrile to get the reaction termination solution at 1000 ng/mL, and stored at room temperature for use.
(§5) The stock solution of test compound was diluted to the designated concentration with organic solution (usually the mixtures of acetonitrile, methanol and water with different portions depending on the compound solution) to make the final concentration to be 1 μM and the contents of organic solvents no more than 1% (For DMSO, the controlled margin was 0.1%) in the final incubation system. 100 mM NADP, 500 mM G-6-P and 100 U/mL G-6-PDH were mixed and diluted with ultrapure water to provide the NADPH regenerating system containing 1 mM NADP, 5 mM G-6-P and 1 U/mL G-6-PD, which was pre-incubated at 37° C. water-bath for 10 min and then cooled on ice until being added into the reaction system. 20 mg/mL liver microsomes was mixed with 200 mM PBS and diluted with ultrapure water to make the concentrations of liver microsomes and PBS to be 0.5 mg/mL and 50 mM in the final incubation system, respectively. After the diluted liver microsomes was mixed with the NADPH regenerating solution, certain volumes of 100 mM EDTA and 300 mM MgCl2 (concentration of EDTA and MgCl2 in the final incubation system is 1 mM and 3 mM, respectively) were added, and the incubation system was put into 37° C. water bath. The incubation was commenced by adding the stock solution of test compound and maintained for 30 min. The incubation was terminated by adding the reaction termination solution. The 0 min sample was prepared by adding the reaction termination solution to the incubation system immediately prior to putting the system into the water bath with the addition of the stock solution of test compound. The terminated incubation mixtures were vortexed and centrifuged at 4400 rpm for 10 min, and the supernatant was collected for LC-MS/MS analysis.
(§6) The concentration of test compound was determined using LC-MS/MS method. Using the peak area ratio of the compound and the internal standard as an index, the percentage of remaining compound after incubation for 30 minutes as compared with the 0 minute sample was calculated, and the metabolic stability of the compound was evaluated.

[5] = Metabolic stability test in liver microsomes (mouse); assay type: in vitro ADME; settings: percentage of remaining compound after incubation for 30 minutes vs 0 minute; 1 μM compound; 0.5 mg/mL liver microsomes; 37° C.
Method: as §1, §2, §3, §4, §5, §6

[6] = system: mutant IDH1; settings: patients with AML or MDS having IDH1 mutations; cited from earlier work
[7] = pH 2.1 sodium phosphate buffer, read-out: Solubility pH 2.1
[8] = pH 7.4 sodium phosphate buffer, read-out: Solubility pH 7.4

T2 sequence (O75874 whole entry R132H): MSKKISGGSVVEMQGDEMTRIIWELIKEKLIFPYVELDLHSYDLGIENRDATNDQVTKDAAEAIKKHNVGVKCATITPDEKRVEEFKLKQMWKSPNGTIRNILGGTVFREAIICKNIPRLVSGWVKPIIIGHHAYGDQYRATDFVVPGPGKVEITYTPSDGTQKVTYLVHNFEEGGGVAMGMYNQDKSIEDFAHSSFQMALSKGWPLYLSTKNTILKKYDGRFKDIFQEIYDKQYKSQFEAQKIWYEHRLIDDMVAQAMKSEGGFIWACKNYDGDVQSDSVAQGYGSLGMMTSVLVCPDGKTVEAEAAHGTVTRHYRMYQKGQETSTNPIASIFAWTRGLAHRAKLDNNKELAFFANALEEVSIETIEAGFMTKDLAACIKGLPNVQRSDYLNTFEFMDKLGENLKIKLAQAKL

SMILES	solubility at 1 h [1, 7] [µg/mL]	solubility at 1 h [1, 8] [µg/mL]	IC50 [2] [nM]	IC50 [3] [nM]	Rat liver microsome stability [4] [%]	Mouse liver microsome stability [5] [%]	patients with decreased levels of α-hydroxyglutaric acid (2HG) [6] [%]	Solubility pH 2.1 ([1]; pH 2.1 sodium phosphate buffer) [mg/mL]	Solubility pH 7.4 ([1]; pH 7.4 sodium phosphate buffer) [mg/mL]
C[C@@H](Nc1nc(NCc2ccccn2)nc(C2=C(F)C(O)C(F)(F)CC2)n1)C(F)(F)F (mixture of isomers) [Compound 271]	974	124							
C[C@@H](Nc1nc(N[C@H]2CCOC2)nc(C2=C(F)C(O)CCC2)n1)C(F)(F)F (mixture of isomers) [Compound 3]	> 1000	716 (≈ 1830 µM)	866						
CC(C)Nc1nc(N[C@H](C)C(F)(F)F)nc(C2=C(F)C(O)CC(C)(C)C2)n1 (mixture of isomers) [Compound 9]	> 1000	85 (≈ 217 µM)	571						
CC(C)Nc1nc(N[C@H](C)C(F)(F)F)nc(C2=CC(O)CC2)n1 (mixture of isomers) [Compound 125]	448 (≈ 1350 µM)	19 (≈ 57.3 µM)	1670						
C[C@@H](Nc1nc(N[C@H](C)C(F)(F)F)nc(C2=C(F)C(O)C3(CC2)CC3)n1)C(F)(F)F (mixture of isomers) [Compound 219]	190 (≈ 429 µM)	60 (≈ 135 µM)	707	3230					
C[C@@H](Nc1nc(N[C@H](C)C(F)(F)F)nc(C2=C(F)C(O)C(F)CC2)n1)C(F)(F)F (single isomer, unassigned) [Compound 97]	77 (≈ 177 µM)	21 (≈ 48.2 µM)	52	47	98.5	89.5			
N#Cc1ccnc(N2C(=O)CC[C@H]2C(=O)N(c2cncc(F)c2)[C@H](C(=O)NC2CC(F)(F)C2)c2ccccc2Cl)c1 [AG-120]							98		
OC1CCCCC(c2nc(NC3CC(F)(F)C3)nc(NC3CC(F)(F)C3)n2)=C1F (centres unmarked) [Compound 20]	570 (≈ 1360 µM)	62 (≈ 148 µM)	232						
C[C@@H](Nc1nc(Nc2ccc3cccnc3c2)nc(C2=C(F)C(O)CCC2)n1)C(F)(F)F (some centres unmarked) [Compound 68]	141 (≈ 314 µM)	< 5	435						
CC(C)(C)ONc1nc(Nc2ccnc(C(F)(F)F)c2)nc(C2=C(F)C(O)CCC2)n1 (centres unmarked) [Compound 71]	64 (≈ 145 µM)	55 (≈ 124 µM)	50	3050					
[2H]C1([2H])CCC(c2nc(N[C@H](C)C(F)(F)F)nc(N[C@H](C)C(F)(F)F)n2)=C(F)C1O (stereo partly drawn) [Compound 82, (*)3-(4,6-Bis(((R)-1,1,1-trifluoropropan-2-yl)amino)-1,3,5-triazin-2-yl)-2-fluorocyclohex-2-en-6,6-D2-1-ol]					92.9	93.1		0.146	0.037
[2H]C1([2H])CCC(c2nc(N[C@@H](C)C(F)(F)F)nc(N[C@@H](C)C(F)(F)F)n2)=C(F)C1O (some centres unmarked) [Compound 87]			205	781	97.9	88.5			
CC(C)Nc1nc(N[C@H](C)C(F)(F)F)nc(C2=C(F)C(O)C(F)(F)CC2)n1 (stereo partly drawn) [Compound 94, 2,6,6-Trifluoro-3-(4-(isopropylamino)-6-(((R)-1,1,1-trifluoropropan-2-yl)amino)-1,3,5-triazin-2-yl)cyclohex-2-en-1-ol]			131	1140	82.6	65.4			
OC1C=C(c2nc(NC3CC(F)(F)C3)nc(NC3CC(F)(F)C3)n2)CCC1 (centres unmarked) [Compound 127]			64	203	49.8	28.7			
OC1C(F)=C(c2nc(NC3CC(F)(F)C3)nc(NC3CC(F)(F)C3)n2)CCC1(F)F (centres unmarked) [Compound 203]			98	733	92.1	91.3			
C[C@@H](Nc1nc(C2=C(F)C(O)C(F)(F)CC2)nc(N2CC(F)(F)C2)n1)C(F)(F)F (some centres unmarked) [Compound 243]	55 (≈ 127 µM)	< 5	1170	> 10000					
C[C@@H](Nc1nc(NC2CC(F)(F)C2)nc(C2=C(F)C(O)C(F)(F)CC2)n1)C(F)(F)F (stereo partly drawn) [Compound 259, 3-(4-((3,3-Difluorocyclobutyl)amino)-6-(((R)-1,1,1-trifluoropropan-2-yl)amino)-1,3,5-triazin-2-yl)-2,6,6-trifluorocyclohex-2-en-1-ol]			57	213	95.1	86.9			
Nc1nc(N)nc(C2=C(F)C(O)C(F)(F)CC2)n1 (centres unmarked) [Compound 284, 3-(4,6-Diamino-1,3,5-triazin-2-yl)-2,6,6-trifluorocyclohex-2-en-1-ol]	789 (≈ 3020 µM)	818 (≈ 3130 µM)							
